Experimental data from patent publication US20210145768A1, “MODULATING IMMUNE RESPONSE VIA TARGETING OF OLFACTORY RECEPTOR ACTIVITY” (La Jolla Institute for Allergy and Immunology, priority 2018, published 2021).

Columns and labels:
Olfr2 = Olfr2 mRNA and protein expression in BMDMs (real time PCR, western blot, flow cytometry); format: cell-based, mouse; details: 12 h
Experimental: Olfr2 expression in BMDMs was investigated. Briefly, bone marrow cells from Apoe^−/− mice were stimulated with MCSF (20 ng/ml) for 7 d to generate BMDMs, which were left untreated or incubated with the Olfr2 agonist octanal (Oct, 10 μM), LPS, (500 ng/mL), or with both for 12 h.
(§1) BMDMs and hMDMs were incubated in culture media for 12 h at 37° C. and 5% CO2 with Oct, (10 μM), LPS (500 ng/mL) alone or combined with Oct (LPS+Oct) and DMSO (0.1%) as a control and lysed with Qiazol (500 μL; Qiagen) Similarly, whole aortas incubated as previously described were transferred into Qiazol (500 μl; Qiagen) and digested with gentleMACS™ Dissociator (Miltenyi).
BMDMs, hMDMs, mouse blood leukocytes and whole mount aortas were incubated in culture medium with Oct, (10 μM), LPS, (500 ng/mL) alone or combined (LPS+Oct) for 12h at 37° C. and 5% CO2. After the incubation aortas were cut into small pieces and digested for cell suspension as previously described^18. […]
For Olfr2 protein detection in BMDMs, cells were incubated in culture medium with Oct, (10 μM), LPS, (500 ng/mL) alone or combined (LPS+Oct) for 12h at 37° C. and 5% CO2. […] Total protein content was quantified using DC Protein Assay (Bio-Rad) and solubilized in a volume ratio of 1:1 with Laemmli Buffer (Bio-Rad). […]

OR6A2 [1] = molecular target: T1, OR6A2 (Homo sapiens, UniProt O95222); experiment: Pro-inflammatory gene expression and cytokine secretion in hMDMs; format: cell-based; details: 12 h
T1 construct: OR6A2 protein surface expression in hMDMs was confirmed by flow cytometry; endogenous in cells; host or cells: human monocyte-derived macrophages from healthy donors (rhM-CSF, 7 d)
T1 sequence (O95222 1-327): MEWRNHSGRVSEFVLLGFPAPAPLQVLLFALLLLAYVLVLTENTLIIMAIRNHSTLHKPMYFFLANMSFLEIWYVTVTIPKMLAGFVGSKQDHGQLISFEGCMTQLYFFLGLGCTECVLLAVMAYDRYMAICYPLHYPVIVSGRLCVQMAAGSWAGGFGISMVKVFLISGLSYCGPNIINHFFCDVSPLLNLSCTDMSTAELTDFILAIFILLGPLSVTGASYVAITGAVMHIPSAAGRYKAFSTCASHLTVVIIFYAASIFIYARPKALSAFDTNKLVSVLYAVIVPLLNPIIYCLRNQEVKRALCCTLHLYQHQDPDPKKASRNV
Experimental: Peripheral blood mononuclear cells (PBMCs) were isolated from EDTA-venous blood of informed healthy donors (25-50 years old) from La Jolla Institute for Immunology's in-house Normal Blood Donor Program (NBDP), using a Ficoll-Paque (GE Healthcare) standard separation protocol. Human monocytes were enriched from PBMCs by the EasySep™ Human Monocyte Isolation Kit (StemCell) according to the manufacturer's instructions. Enriched monocytes were incubated with culture medium supplemented with 50 ng/ml rhM-CSF at 37° C. and 5% CO2 for 7 days. Differentiated macrophages at day 7 were used for further studies.
as §1
Total RNA was quantified using a nanodrop spectrophotometer (Peqlab) and 500 ng were reverse transcribed into cDNA using Omniscript reverse transcriptase (Qiagen). Real time PCR reactions were performed according to the RT^2 SYBR green gene expression assay protocol (Qiagen). RT2 SYBR Green qPCR master mix and premade RT^2 qPCR Primer Assays for mouse Olfr2, Rtp1, Rtp2, Ccl2, Ccl4, Tnf, Nos2 and Gapdh were used. […] The results were calculated applying the 2^−ΔΔCT method^32 using Gapdh/GAPDH as housekeeping gene.
Supernatants of stimulated cells and aortic tissue were analyzed by BD CBA Flex Sets (BD Biosciences) for mouse TNFα, CCL2, CCL4, IL-1β, or human TNF, IL6, and IL-1β according to the manufacturer's protocol. Samples were analyzed with LSR-II (BD Biosciences). Data was acquired with FACSDiva software (BD Biosciences) and analyzed with FCAP array software 3.0 (BD Biosciences).

OR6A2 [2] = experiment: OR6A2 expression in hMDMs (real time PCR, flow cytometry); format: cell-based, human; details: LPS + octanal
Experimental: as §1
Total RNA was quantified using a nanodrop spectrophotometer (Peqlab) and 500 ng were reverse transcribed into cDNA using Omniscript reverse transcriptase (Qiagen). Real time PCR reactions were performed according to the RT^2 SYBR green gene expression assay protocol (Qiagen). RT2 SYBR Green qPCR master mix and premade RT^2 qPCR Primer Assays for mouse Olfr2, Rtp1, Rtp2, Ccl2, Ccl4, Tnf, Nos2 and Gapdh were used. Similarly, real time PCR analysis of hMDMs samples was performed following the RT^2 SYBR green gene expression assay protocol (Qiagen), applying RT^2 SYBR Green qPCR master mix and premade RT^2 qPCR Primer Assays for human OR6A2, TNF, IL-6, NOS2 and GAPDH. The results were calculated applying the 2^−ΔΔCT method^32 using Gapdh/GAPDH as housekeeping gene.
BMDMs, hMDMs, mouse blood leukocytes and whole mount aortas were incubated in culture medium with Oct, (10 μM), LPS, (500 ng/mL) alone or combined (LPS+Oct) for 12h at 37° C. and 5% CO2. […]

CCCCCCCC=O [octanal]
Olfr2 mRNA and protein expression in BMDMs (Olfr2; LPS + octanal combined): potentiated | Olfr2 mRNA and protein expression in BMDMs (Olfr2; octanal 10 μM): enhanced | LPS-induced expression of TNF, IL6 and NOS2 in hMDMs (OR6A2 [1]; LPS 500 ng/mL + octanal 10 μM): enhanced the LPS-induced expression | secretion of inflammatory molecules (IL6, TNF) in hMDM supernatant (OR6A2 [1]; LPS + octanal, cytokine bead array): enhanced | mRNA expression of TNF, IL6 and NOS2 in hMDMs (OR6A2 [1]; octanal 10 μM): induced mRNA expression | OR6A2 mRNA expression in hMDMs (OR6A2 [2]): further augmented
